Reference: publication PMC5666424, “Marine-Derived 2-Aminoimidazolone Alkaloids. Leucettamine B-Related Polyandrocarpamines Inhibit Mammalian and Protozoan DYRK & CLK Kinases” (Marine Drugs, 2017)
pIC50: −log10 of the molar value. Where two headings read alike, the source gives them in different places.

Columns and labels:
[1] = target: T1, DYRK2 (Homo sapiens, UniProt Q92630); assay: Protein kinase assay; assay type: biochemical
T1 sequence (Q92630 1-601): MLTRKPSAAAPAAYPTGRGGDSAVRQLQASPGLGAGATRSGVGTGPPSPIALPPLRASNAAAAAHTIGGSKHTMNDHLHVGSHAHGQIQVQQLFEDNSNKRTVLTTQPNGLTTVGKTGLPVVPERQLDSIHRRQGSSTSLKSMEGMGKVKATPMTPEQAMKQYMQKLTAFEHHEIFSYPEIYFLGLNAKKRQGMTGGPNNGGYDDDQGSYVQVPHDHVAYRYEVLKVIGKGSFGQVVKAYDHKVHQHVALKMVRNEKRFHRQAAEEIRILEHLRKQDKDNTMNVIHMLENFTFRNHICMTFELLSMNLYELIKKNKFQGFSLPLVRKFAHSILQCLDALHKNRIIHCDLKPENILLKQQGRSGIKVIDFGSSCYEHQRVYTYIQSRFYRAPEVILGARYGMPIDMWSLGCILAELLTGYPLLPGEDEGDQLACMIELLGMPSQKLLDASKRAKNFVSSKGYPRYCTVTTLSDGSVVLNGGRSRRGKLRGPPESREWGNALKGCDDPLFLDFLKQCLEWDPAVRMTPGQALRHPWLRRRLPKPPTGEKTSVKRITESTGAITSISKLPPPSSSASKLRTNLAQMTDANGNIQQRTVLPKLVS

[2] = target: T2, DYRK3 (Homo sapiens, UniProt O43781); assay: Protein kinase assay; assay type: biochemical
T2 sequence (O43781 1-588): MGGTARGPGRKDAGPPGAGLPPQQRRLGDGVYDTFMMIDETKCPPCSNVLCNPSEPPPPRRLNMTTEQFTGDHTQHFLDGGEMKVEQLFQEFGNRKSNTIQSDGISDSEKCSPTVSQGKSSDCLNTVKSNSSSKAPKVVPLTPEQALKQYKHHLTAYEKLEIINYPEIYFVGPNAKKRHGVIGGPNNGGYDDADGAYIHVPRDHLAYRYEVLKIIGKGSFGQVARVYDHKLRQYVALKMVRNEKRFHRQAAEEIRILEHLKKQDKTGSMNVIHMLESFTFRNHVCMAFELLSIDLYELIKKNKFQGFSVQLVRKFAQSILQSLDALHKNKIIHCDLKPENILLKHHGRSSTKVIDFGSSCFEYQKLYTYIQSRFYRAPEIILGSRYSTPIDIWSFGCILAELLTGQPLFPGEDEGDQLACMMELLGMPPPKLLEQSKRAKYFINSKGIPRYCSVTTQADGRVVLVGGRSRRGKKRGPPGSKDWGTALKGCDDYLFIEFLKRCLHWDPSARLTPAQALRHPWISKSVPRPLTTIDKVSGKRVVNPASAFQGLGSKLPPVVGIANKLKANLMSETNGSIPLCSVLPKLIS

[3] = target: TgCLK (Toxoplasma gondii, UniProt V4ZJD6); assay: Protein kinase assay; assay type: biochemical
[4] = target: GSK-3α/β; assay: Protein kinase assay; assay type: biochemical, porcine; conditions: 15 μmol/L ATP
[5] = target: CDK9/cyclin T (Homo sapiens, UniProt P50750); assay: Protein kinase assay; conditions: IC50 CDK9/cyclin T, 15 μmol/L ATP
[6] = target: CK1δ/ε; assay: Protein kinase assay; assay type: biochemical, porcine; conditions: 15 μmol/L ATP
Experimental: CK1δ/ε (porcine brain, native) and LmCK1 (leishmania major, recombinant, expressed in E. coli as HIS fusion proteins) was assayed as described for CDK1 but in buffer C and using 25 μM CKS peptide ([…]pSAYSITA), a CK1-specific substrate.

[7] = test system: 27 purified kinases (14 mammalian and 13 unicellular parasites); assay: Battery of 27 purified kinases
Excerpt: We tested a selection of these 2-aminoimidazolones (Figure 1) on a battery of 27 purified kinases (14 mammalian and 13 unicellular parasites (Supplementary Table S3)).

[8] = target: T3, CSNK2A1 (Homo sapiens, UniProt P68400); assay: KinomeScan; assay type: binding; conditions: 1 μM
T3 construct: purchased DiscoverX (KINOMEscan)
Experimental: (§1) Assays were performed essentially as described previously. For most assays, kinase-tagged T7 phage strains were grown in parallel in 24-well blocks in an E. coli host derived from the BL21 strain. E. coli were grown to log-phase and infected with T7 phage from a frozen stock (multiplicity of infection ~0.1) and incubated with shaking at 32 °C until lysis (~90 min). The lysates were centrifuged (6000× g) and filtered (0.2 μm) to remove cell debris. The remaining kinases were produced in HEK-293 cells and subsequently tagged with DNA for qPCR detection. […] The liganded beads were blocked with excess biotin and washed with blocking buffer (SeaBlock (Pierce, ThermoFisher Scientific, Illkirch, France), 1% BSA, 0.05% Tween 20, 1 mM DTT) to remove unbound ligand and to reduce non-specific phage binding. […] An 11-point threefold serial dilution of each test compound was prepared in 100% DMSO at 100× final test concentration which and subsequently diluted to 1× in the assay. All reactions were performed in polystyrene 96-well plates in a final volume of 0.135 mL. […] The kinase concentration in the eluates was measured by qPCR.

[9] = target: T4, CSNK1G3 (Homo sapiens, UniProt Q9Y6M4); assay: KinomeScan; assay type: binding; conditions: 1 μM
T4 construct: purchased DiscoverX (KINOMEscan)
Experimental: as §1

[10] = target: T5, ACVR2A (Homo sapiens, UniProt P27037); assay: KinomeScan; assay type: binding; conditions: 1 μM
T5 construct: purchased DiscoverX (KINOMEscan)
Experimental: as §1

[11] = target: T6, EPHA5 (Homo sapiens, UniProt P54756); assay: KinomeScan; assay type: binding; conditions: 1 μM
T6 construct: purchased DiscoverX (KINOMEscan)
Experimental: as §1

[12] = target: T7, CDKL2 (Homo sapiens, UniProt Q92772); assay: KinomeScan; assay type: binding; conditions: 1 μM
T7 construct: purchased DiscoverX (KINOMEscan)
Experimental: as §1

[13] = target: T8, MRCKB (Homo sapiens, UniProt Q9Y5S2); assay: KinomeScan; assay type: binding; conditions: 1 μM
T8 construct: purchased DiscoverX (KINOMEscan)
Experimental: as §1

[14] = target: T9, LCK (Homo sapiens, UniProt P06239); assay: KinomeScan; assay type: binding; conditions: 1 μM
T9 construct: purchased DiscoverX (KINOMEscan)
Experimental: as §1

[15] = target: T10, ADCK3 (Homo sapiens, UniProt Q8NI60); assay: KinomeScan; assay type: binding; conditions: 1 μM
T10 construct: purchased DiscoverX (KINOMEscan)
Experimental: as §1

[16] = target: T11, NDR1 (Homo sapiens, UniProt Q15208); assay: KinomeScan; assay type: binding; conditions: 1 μM
T11 construct: purchased DiscoverX (KINOMEscan)
Experimental: as §1

[17] = target: T12, ABL1(Y253F)-phosphorylated (Homo sapiens, UniProt P00519, Y253F); assay: KinomeScan; assay type: binding; conditions: 1 μM
T12 construct: purchased DiscoverX (KINOMEscan)
Experimental: as §1

[18] = test system: FLT3(ITD); assay: KinomeScan; assay type: binding, human; conditions: 1 μM
Experimental: as §1

[19] = test system: EGFR(L747-T751del,Sins); assay: KinomeScan; assay type: binding, human; conditions: 1 μM
Experimental: as §1

[20] = 15 μmol/L ATP, read-out: IC50 DYRK2
[21] = 15 μmol/L ATP, read-out: IC50 DYRK3
[22] = 15 μmol/L ATP; read-out: IC50 TgCLK

CDK9/cyclin T, sequence (P50750 whole entry): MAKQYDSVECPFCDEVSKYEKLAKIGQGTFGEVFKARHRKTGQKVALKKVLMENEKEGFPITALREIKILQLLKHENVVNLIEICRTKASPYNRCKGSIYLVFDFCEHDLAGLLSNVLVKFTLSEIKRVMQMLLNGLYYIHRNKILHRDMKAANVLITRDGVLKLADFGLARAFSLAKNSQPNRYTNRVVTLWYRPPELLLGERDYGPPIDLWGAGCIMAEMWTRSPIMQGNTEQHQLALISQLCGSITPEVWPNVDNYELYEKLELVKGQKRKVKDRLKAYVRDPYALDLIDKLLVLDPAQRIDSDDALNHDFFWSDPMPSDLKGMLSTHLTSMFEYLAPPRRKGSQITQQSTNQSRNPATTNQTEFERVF
CDK9/cyclin T, sequence (O60563 whole entry partner): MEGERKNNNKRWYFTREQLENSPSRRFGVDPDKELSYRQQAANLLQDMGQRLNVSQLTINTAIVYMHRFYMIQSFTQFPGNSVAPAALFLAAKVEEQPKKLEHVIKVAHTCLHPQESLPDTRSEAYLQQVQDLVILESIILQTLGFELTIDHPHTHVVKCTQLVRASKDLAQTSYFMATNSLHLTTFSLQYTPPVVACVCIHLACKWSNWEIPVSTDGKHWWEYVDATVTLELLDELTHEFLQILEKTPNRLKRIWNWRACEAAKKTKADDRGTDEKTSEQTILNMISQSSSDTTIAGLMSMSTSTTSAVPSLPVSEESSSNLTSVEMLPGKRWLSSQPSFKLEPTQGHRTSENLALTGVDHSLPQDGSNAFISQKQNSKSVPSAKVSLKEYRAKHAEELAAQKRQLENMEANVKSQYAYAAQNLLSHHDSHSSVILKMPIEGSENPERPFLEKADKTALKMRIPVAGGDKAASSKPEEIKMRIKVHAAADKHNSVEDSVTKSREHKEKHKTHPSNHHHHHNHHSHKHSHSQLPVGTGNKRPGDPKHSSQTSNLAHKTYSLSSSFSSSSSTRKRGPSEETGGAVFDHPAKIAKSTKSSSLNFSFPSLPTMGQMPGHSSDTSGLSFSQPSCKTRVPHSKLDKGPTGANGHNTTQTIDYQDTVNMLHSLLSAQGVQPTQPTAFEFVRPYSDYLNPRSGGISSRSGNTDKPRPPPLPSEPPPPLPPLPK
T9 sequence (P06239 whole entry): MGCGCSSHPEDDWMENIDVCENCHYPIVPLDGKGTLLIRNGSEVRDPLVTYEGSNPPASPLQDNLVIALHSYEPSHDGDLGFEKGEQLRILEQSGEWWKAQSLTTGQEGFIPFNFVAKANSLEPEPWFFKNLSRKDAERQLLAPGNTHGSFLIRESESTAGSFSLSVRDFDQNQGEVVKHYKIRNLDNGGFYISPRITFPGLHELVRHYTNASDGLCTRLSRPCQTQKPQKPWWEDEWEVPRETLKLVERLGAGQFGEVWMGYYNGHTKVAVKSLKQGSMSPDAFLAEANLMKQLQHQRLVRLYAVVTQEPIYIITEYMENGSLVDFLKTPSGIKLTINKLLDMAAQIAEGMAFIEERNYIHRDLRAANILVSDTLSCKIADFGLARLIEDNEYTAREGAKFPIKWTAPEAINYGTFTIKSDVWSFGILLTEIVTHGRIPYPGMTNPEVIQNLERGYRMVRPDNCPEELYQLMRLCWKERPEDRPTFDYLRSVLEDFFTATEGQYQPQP
T3 sequence (P68400 whole entry): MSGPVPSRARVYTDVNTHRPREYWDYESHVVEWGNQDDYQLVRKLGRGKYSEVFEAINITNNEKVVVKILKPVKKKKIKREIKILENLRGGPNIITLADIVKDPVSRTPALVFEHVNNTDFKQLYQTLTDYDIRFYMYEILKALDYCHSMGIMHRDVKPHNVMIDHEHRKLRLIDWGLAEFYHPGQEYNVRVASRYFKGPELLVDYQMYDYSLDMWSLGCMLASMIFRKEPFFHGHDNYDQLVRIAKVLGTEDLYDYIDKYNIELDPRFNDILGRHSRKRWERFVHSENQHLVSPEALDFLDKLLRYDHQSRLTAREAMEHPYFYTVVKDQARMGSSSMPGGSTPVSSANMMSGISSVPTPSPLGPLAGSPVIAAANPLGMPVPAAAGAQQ
T4 sequence (Q9Y6M4 whole entry): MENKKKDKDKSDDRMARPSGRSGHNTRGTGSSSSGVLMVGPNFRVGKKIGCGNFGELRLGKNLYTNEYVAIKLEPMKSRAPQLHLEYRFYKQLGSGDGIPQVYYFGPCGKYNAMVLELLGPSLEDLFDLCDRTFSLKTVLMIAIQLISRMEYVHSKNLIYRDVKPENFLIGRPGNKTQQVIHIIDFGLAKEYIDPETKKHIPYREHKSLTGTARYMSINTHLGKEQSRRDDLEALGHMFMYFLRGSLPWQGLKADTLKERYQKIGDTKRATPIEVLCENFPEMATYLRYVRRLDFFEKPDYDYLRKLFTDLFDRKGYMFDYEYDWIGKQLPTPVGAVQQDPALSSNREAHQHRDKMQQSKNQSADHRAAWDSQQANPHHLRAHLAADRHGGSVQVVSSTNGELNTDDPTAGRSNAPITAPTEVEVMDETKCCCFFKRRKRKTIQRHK
T10 sequence (Q8NI60 163-647): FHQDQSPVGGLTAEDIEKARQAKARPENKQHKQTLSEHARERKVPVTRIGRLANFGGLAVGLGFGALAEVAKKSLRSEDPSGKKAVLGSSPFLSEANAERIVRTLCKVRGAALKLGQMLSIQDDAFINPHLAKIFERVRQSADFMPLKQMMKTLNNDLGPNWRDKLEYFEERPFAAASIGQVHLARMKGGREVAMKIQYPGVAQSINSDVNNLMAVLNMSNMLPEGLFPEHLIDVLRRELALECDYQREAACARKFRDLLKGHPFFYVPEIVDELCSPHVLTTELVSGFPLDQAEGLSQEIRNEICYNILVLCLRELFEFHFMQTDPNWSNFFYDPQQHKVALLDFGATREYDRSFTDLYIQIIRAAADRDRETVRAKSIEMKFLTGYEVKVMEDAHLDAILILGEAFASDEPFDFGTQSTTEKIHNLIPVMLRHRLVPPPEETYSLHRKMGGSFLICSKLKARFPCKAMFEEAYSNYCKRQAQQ
T11 sequence (Q15208 whole entry): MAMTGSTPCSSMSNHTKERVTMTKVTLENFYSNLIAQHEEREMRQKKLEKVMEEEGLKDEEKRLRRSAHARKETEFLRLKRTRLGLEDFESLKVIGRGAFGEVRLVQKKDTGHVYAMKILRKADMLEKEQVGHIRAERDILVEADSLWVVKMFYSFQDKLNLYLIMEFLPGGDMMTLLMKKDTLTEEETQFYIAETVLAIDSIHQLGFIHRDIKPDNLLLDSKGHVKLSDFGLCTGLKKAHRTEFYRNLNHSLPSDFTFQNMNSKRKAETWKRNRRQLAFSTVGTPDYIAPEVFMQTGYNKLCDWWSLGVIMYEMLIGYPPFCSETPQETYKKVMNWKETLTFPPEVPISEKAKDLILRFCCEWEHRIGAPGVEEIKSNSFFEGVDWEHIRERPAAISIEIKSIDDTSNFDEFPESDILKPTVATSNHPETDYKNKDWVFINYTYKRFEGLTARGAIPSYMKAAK
T6 sequence (P54756 25-1037): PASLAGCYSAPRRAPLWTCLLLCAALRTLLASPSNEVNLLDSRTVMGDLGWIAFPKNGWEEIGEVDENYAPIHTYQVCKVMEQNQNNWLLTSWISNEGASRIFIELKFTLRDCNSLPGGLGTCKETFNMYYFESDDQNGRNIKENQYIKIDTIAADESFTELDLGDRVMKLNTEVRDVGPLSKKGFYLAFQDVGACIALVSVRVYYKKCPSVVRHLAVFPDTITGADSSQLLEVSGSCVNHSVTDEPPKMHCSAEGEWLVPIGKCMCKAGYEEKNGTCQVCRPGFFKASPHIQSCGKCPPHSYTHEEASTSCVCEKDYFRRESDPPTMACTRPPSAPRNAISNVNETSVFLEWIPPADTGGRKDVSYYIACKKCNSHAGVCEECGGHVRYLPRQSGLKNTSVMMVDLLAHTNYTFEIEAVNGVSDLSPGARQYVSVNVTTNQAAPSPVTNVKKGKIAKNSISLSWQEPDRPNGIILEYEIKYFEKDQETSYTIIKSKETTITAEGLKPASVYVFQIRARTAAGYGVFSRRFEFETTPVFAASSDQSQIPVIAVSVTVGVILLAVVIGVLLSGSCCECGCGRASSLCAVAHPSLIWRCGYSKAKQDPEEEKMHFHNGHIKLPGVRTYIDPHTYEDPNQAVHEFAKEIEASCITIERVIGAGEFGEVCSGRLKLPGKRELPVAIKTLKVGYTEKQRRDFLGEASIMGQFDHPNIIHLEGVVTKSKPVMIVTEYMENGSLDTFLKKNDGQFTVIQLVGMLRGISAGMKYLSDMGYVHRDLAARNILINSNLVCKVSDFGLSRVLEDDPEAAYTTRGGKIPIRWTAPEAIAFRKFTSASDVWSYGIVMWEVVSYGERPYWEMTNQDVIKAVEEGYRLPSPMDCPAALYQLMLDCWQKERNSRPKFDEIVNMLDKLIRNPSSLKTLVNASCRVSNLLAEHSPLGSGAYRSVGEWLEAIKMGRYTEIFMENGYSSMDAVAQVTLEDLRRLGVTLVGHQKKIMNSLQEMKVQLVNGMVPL
T7 sequence (Q92772 whole entry): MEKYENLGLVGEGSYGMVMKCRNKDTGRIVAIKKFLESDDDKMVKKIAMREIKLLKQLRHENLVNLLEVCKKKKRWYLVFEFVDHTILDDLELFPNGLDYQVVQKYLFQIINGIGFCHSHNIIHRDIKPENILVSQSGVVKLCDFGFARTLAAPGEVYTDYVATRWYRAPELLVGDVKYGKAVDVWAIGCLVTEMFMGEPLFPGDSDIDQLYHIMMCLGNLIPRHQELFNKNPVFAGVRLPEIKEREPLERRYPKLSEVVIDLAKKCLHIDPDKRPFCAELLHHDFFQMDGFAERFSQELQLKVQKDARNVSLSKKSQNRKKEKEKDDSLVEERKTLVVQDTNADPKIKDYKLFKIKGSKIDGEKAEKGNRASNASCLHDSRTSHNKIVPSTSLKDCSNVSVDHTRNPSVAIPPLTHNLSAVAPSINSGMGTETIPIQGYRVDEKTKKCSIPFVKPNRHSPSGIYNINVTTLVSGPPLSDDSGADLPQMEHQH

Row | Compound | pIC50 [1, 20] | pIC50 [2, 21] | pIC50 [3, 22] | pIC50 [4] | pIC50 [5] | pIC50 [6] | activity in the kinase panel [7] | also measured
1 | NC1=NC(=O)/C(=C2\CCNC(=O)c3[nH]cc(Br)c32)N1 [Spongiacidin B] | 7.68 | 7.36 | 6.32 | 7.36 | 6.70 | 7.51 | – | –
2 | CN1C(=N)N(C)/C(=C\c2c[nH]c3ccccc23)C1=O [Aplysinopsine] | < 5.00 | < 5.00 | < 5.00 | < 5.00 | < 5.00 | < 5.00 | essentially inactive | –
3 | CN1C(=O)N=C(Nc2nc(Cc3ccc4c(c3)OCO4)cn2C)C1=O [Clathridine] | 5.15 | < 5.00 | < 5.00 | < 5.00 | < 5.00 | < 5.00 | essentially inactive | –
4 | NC1=N/C(=C\c2ccc(O)c(O)c2)C(=O)N1 [Polyandrocarpamine B] | 6.12 | 6.06 | < 5.00 | < 5.00 | 5.28 | < 5.00 | – | –
5 | NC1=N/C(=C\CCNC(=O)c2cc(Br)c(Br)[nH]2)C(=O)N1 [Dispacamide] | < 5.00 | < 5.00 | < 5.00 | < 5.00 | < 5.00 | < 5.00 | essentially inactive | –
6 | CN1C(=N)N=C(Nc2nc(Cc3ccc4c(c3)OCO4)cn2C)C1=O [Clathridimine] | 5.21 | 5.21 | < 5.00 | < 5.00 | < 5.00 | < 5.00 | essentially inactive | –
7 | COc1cc(/C=C2\N=C(N)NC2=O)ccc1O [Polyandrocarpamine A] | 6.38 | 6.77 | < 5.00 | – | 6.03 | 5.48 | – | Score [8]: 12; Score [9]: 84; Score [10]: 100; Score [11]: 100; Score [12]: 100; Score [13]: 100; Score [14]: 100; Score [15]: 100; Score [16]: 100; Score [17]: 100; Score [18]: 100; Score [19]: 92
8 | CN1C(=O)/C(=C/c2ccc3c(c2)OCO3)N=C1N [Leucettamine B] | – | – | – | 5.14 | < 5.00 | < 5.00 | modestly active | pIC50 ([1]; IC50 DYRK2, 15 μmol/L ATP): 6.31; pIC50 ([2]; IC50 DYRK3, 15 μmol/L ATP): 6.22; pIC50 ([3]; read-out: IC50 TgCLK; 15 μmol/L ATP): 5.39
9 | NC1=NC(=O)/C(=C2\CCNC(=O)c3[nH]c(Br)cc32)N1 [Hymenialdisine, reference compound] | 8.51 | 8.31 | 7.39 | 8.49 | 7.96 | 8.43 | – | –
